This note sets out measurements from patent US20220274967A1, “BCAT MODULATION” (Icagen, LLC, priority 2019, published 2022).

pIC50: −log10 of the molar value. Read-outs that look alike come from different tables or passages of the source.

The target of one assay is T1, BCAT2 (Homo sapiens, UniProt O15382).
T1 sequence (O15382 28-392): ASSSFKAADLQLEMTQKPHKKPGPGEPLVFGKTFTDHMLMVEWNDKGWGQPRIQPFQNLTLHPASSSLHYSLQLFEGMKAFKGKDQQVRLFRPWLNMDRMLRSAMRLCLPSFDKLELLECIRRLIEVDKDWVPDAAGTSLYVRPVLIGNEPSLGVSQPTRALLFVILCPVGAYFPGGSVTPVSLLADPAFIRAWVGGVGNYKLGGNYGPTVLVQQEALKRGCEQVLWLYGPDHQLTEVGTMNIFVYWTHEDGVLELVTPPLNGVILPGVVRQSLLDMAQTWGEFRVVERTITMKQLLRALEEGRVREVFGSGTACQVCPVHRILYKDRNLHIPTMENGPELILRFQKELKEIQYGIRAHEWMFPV
As to the kind of experiment: BCAT2 enzyme inhibition (human). The assay is classed as biochemical. As to the method:
In further embodiments, the functional modulation of BCAT2 is assayed using a cell-free assay. In various embodiments, the cell-free assay is an enzyme-coupled fluorescent assay. For example, the disclosure contemplates use of an assay that monitors the production of L-glutamate from branch-chain amino acids and α-ketoglutarate through the coupling of hBCATm activity to two additional enzymes, L-Glutamate Oxidase (L-GOx) and Horseradish Peroxidase (HRP). Specifically, L-GOx catabolizes L-glutamate to generate α-ketoglutarate and […], the latter being utilized by HRP and leading to the formation of fluorescent resorufin from the redox-sensitive dye Amplex Red. In some embodiments, the test compound is classified as a candidate compound if a decrease in L-glutamate is measured. In further embodiments, the test compound is classified as a candidate compound if a decrease in α-ketoglutarate is measured.

The target in the next assay is T2, BCAT1 (Homo sapiens, UniProt P54687).
T2 sequence (P54687 1-386): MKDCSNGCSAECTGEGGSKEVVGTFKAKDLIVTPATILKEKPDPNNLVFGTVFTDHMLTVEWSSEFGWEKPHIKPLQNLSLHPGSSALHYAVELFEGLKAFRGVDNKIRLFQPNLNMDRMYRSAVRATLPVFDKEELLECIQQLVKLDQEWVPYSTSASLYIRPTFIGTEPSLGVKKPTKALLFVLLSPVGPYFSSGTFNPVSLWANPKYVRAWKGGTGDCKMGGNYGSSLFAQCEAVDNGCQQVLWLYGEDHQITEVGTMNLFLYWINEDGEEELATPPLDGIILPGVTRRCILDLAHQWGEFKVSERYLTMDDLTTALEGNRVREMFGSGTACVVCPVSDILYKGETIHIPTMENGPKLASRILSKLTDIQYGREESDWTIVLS
As to the kind of experiment: BCAT1 enzyme inhibition (human), Glutamate Glo luminescence. Type of assay: biochemical. As to the method: The BCAT1 inhibitory activity of selected compounds of the present disclosure were also evaluated. Compounds were prepared as up to 10 mM stock solutions generally using DMSO as the vehicle. 10-point dose response curves were generated using the Echo-550 (Labcyte) acoustic dispenser. Compound source plates ([…]) were made by serially diluting compound stocks to create 1 mM, 0.1 mM, and 0.01 mM solutions in DMSO into Echo certified LDV plates. The Echo then serially spotted 100% DMSO stock solutions into source dose response plates to generate a semi-log fold dilution scheme. 100% DMSO was added to the spotted dose response plates to bring the final volume to 5 μL, creating a 333× stock plate. 120 nL of the dose response stock plate was then spotted into the assay plate. 10 μL of assay buffer (50 mM Tris with 0.05% TWEEN-20) was then added to the plates resulting in a 4× working concentration in the assay plate. Final assay test concentration range was 3 μM to 0.0001 μM with a final DMSO concentration of 0.3%.
BCAT1 enzyme stock was first diluted to a 4× working concentration of 0.24 μg/mL in assay buffer (final assay concentration is 0.06 ug/ml). 10 μL of the 4×BCAT1 solution was then added to the previously prepared assay plate containing test compound or controls, and incubated at room temperature, protected from light, for either 10 or 60 minutes. After the compound incubation period, 20 μL of assay buffer plus 2× substrate is added to all wells (Final assay concentration of substrates is 300 μM L-leucine and 250 μM alpha-ketoglutaric acid). Enzyme reaction was then incubated for 10 minutes at room temperature. After the 10 minute incubation, the enzymatic reaction was halted with the addition of 5 μL of 0.6N HCl and incubated for 1 min. 5 μL of 1M Tris (pH 8.0) was then added to neutralize pH. 12.5 μL of the quenched assay volume was then transferred to a white, 384 well plate and 12.5 μL of Glutamate detection reagent was added (detection reagent prepared per Promega Glutamate Glo kit instructions). Plates were then incubated for 30 minutes at room temperature, protected from light. After glutamate detection incubation period, luminescence was read on BMG Novostar and relative light units was measured and exported for analysis.
Compound modulation of BCAT1 enzymatic activity was determined as follows. IC50 values were calculated in ActivityBase, using a 4-parameter fit equation. Data was normalized to maximum inhibition form the reference agent VS558CSA (at 10 μM). Relative light units were exported for analysis and % inhibition values for each well were calculated using the following formula: […]

A further assay relates to GM00371 cells. As to the kind of experiment: Viability assay (Cell titer glo) in the 3-HIB assay. The assay is classed as cell-based, human. The note with it: read-out: 3HIB INHIBITION IC50 (μM) MEAN GM00371 cells Viablility Assay. As to the method: Cell Plating: Cells (Coriell Institute GM00371 cells) were plated (96-well clear bottom sterile plate; Greiner 655098) at 10,000 cells/0.1 mL in Eagle's minimum essential medium (EMEM)/15% FBS (Gibco 16000-044) with a Combi dispenser in a cell culture hood and incubated at 37° C. and 5% CO2 overnight.
Compound Dilution: Compound were prepared as 33.3× intermediate dilution in DMSO in 96 well round polystyrene plates. For 30 μM final maximum start with 30 μL of 10 mM in DMSO. 10-12 1:3 serial dilutions were prepared from left to right (20 μL+40 μL DMSO). A 10× secondary dilution was prepare in EMEM by taking 7.5 μL 33.3× and transfer to replicate 96 well round polystyrene plates and then adding 242.5 μL EMEM A 1× final dilution in EMEM was prepared by taking 50 μL 10× dilution and transferring to replicate 96 well polypropylene assay block (Costar 3956) and adding 450 μL EMEM A control was prepared for maximal compound inhibition by taking 20 μL 10 mM Reference Compound A and adding 40 μL DMSO for a concentration of 3.3 mM To 7.5 μL of the 3.3 mM Reference Compound A solution and added 242.5 μL EMEM to make a 100 μM solution. The subsequent Reference Compound A solution was diluted with EMEM to achieve a final concentration of 10 μM. The structure of Reference Compound A is:
A control was prepared for maximal compound toxicity by taking 7.5 μL Reference Compound B and 242.5 μL EMEM to make […]. 50 μL of that 100 μM Reference Compound B solution was combined with 450 μL EMEM to achieve a concentration of 30 μM. The structure of Reference Compound B is
Compound Treatment: Media was aspirated from the cells and 100 μL of D-PBS (ThermoFisher 14190144) was added and then removed. 100 μL of diluted compound was added to the cells in the place and the cells were incubated at 37° C. and 5% CO2 for 24 hours.
Viability Assay: To the cells remaining in the plate 25 μL D-PBS and 25 μL Cell titer glo reagent (Promega G7572). The plate was placed on a shaker for 2 minutes, incubated at room temperature in the dark and then read on a Clariostar microplate reader.
(Cellular ATP, detected with luciferase, serves as a proxy for viable cell number.)

What is called pIC50 is the negative decadic logarithm of the IC50, by convention in mol/L. Read a high pIC50 as a small IC50. As for `CNC(=O)c1cc2nc(-c3c(F)ccc(F)c3O)n([C@H]3CCC[C@@H](NC(=O)c4ccc(Br)s4)C3)c2cc1F` [Compound 233], the pIC50 against BCAT2 is over 7.00; against BCAT1, 6.00 to 6.30.
For `CNC(=O)c1ccc2c(c1)nc(-c1cnccn1)n2[C@H]1CCC[C@@H](NC(=O)c2ccc(Br)s2)C1` [Compound 149], in that order: 6.30 to 7.00 and at most 6.00.
With `O=C(N[C@@H]1CCC[C@H](n2c(-c3ccccn3)nc3cccnc32)C1)c1ccc(Br)s1` [Compound 280], the results for the pIC50 against BCAT2 and at BCAT1 were 6.30 to 7.00 and at most 6.00, respectively.
Regarding `CNC(=O)c1ccc2c(c1)nc(-c1ccccc1F)n2[C@H]1CCC[C@@H](C(=O)Nc2ccccc2)C1` [Compound 202], the pIC50 against BCAT2 is under 6.00; on BCAT1 it was at most 6.00.
On the same counts, the results for `N#Cc1ccc2c(c1)nc(-c1ccccn1)n2[C@H]1CCC[C@@H](NC(=O)c2ccc(Cl)s2)C1` [Compound 195] are over 7.00 and at most 6.00.
Consider `CNC(=O)c1cc2nc(-c3ncccc3F)n([C@H]3CCC[C@@H](NC(=O)c4ccc(Cl)s4)C3)c2cn1` [Compound 286, 3-((1S,3R)-3-(5-chlorothiophene-2-carboxamido)cyclohexyl)-2-(3-fluoropyridin-2-yl)-N-methyl-3H-imidazo[4,5-c]pyridine-6-carboxamide], for which the negative logarithm of the IC50 (pIC50) against BCAT2 and on BCAT1 was over 7.00 each time.
For the compound `CNC(=O)c1ccc2c(c1)nc(-c1ccccc1C#N)n2[C@H]1CCC[C@@H](C(=O)Nc2ccccc2)C1` [Compound 203], the pIC50 on BCAT2 was under 6.00; at BCAT1, at most 6.00.
On to `CNC(=O)c1cc2nc(-c3ccccn3)n([C@H]3CCC[C@@H](NC(=O)c4ccc(Cl)s4)C3)c2cc1O` [Compound 240], for which the negative logarithm of the IC50 (pIC50) was over 7.00 at BCAT2 and 6.00 to 6.30 against BCAT1.
For the compound `CNC(=O)c1ccc2c(c1)nc(-c1cccc(F)c1)n2C1CCCN(C(=O)Nc2ccccc2Cl)C1` (centres unmarked) [Compound 227], the pIC50 was under 6.00 against BCAT2 and at most 6.00 against BCAT1.
In the case of `O=C(N[C@@H]1CCC[C@H](n2c(-c3ccccn3)nc3ccncc32)C1)c1ccc(Br)s1` [Compound 294], the negative-log IC50 (pIC50) at BCAT2 is 6.30 to 7.00; against BCAT1, at most 6.00.
The IC50 is the midpoint of a concentration-inhibition curve. In turn, `CNC(=O)c1cc2nc(-c3ccccc3F)n([C@H]3CCC[C@@H](NC(=O)c4ccc(Cl)s4)C3)c2cc1OC` [Compound 212] gave a negative-log IC50 (pIC50) against BCAT2 of over 7.00. In the assay on GM00371 cells (Homo sapiens, 24 h), the IC50 was under 0.1 µM.
The compound `CNC(=O)c1ccc2c(c1)nc(-c1ccccn1)n2[C@H]1CCC[C@@H](NC(=O)c2ccc(C(C)C)s2)C1` [Compound 146] gave a pIC50 against BCAT2 of under 6.00. The IC50 in the assay on GM00371 cells (Homo sapiens, 24 h) is at least 1 µM.
At BCAT2, `CNC(=O)c1ccc2c(C3CCCC(NC(=O)c4cccs4)C3)c(-c3ccccc3)[nH]c2c1` (centres unmarked) [Compound 290] gave a pIC50 of under 6.00. For the same compound, the 50% inhibitory concentration (IC50) in the assay on GM00371 cells (Homo sapiens, 24 h) is at least 1 µM.
`CNC(=O)c1ccc2c(c1)nc(-c1ccccc1C(N)=O)n2[C@H]1CCC[C@@H](NC(=O)c2ccc(C#N)s2)C1` [Compound 142] had a pIC50 at BCAT2 of over 7.00. The IC50 in the assay with GM00371 cells (Homo sapiens, 24 h) is at least 1 µM.
Take `CNC(=O)c1ccc2c(c1)nc(-c1c(F)cccc1F)n2[C@H]1CCC[C@@H](NC(=O)c2ccc(Br)s2)C1` [Compound 215]: the negative-log IC50 (pIC50) against BCAT2 is over 7.00. In addition, the IC50 with GM00371 cells (24 hours) lay within 0.1 to 0.5 µM.
`C=CC(=O)Nc1ccc(C(=O)N[C@H]2CCC[C@@H](n3c(-c4ccccn4)nc4cc(C(=O)NC)ccc43)C2)s1` [Compound 110] showed a pIC50 against BCAT2 of under 6.00. Also, the 50% inhibitory concentration (IC50) in the assay on GM00371 cells (Homo sapiens, 24 h) is at least 1 µM.
For the compound `CNC(=O)c1ccc2c(c1)nc(-c1ccccn1)n2[C@@H]1CCC[C@H](NC(=O)c2ccc(-c3ccccc3)s2)C1` [Compound 111], the pIC50 against BCAT2 is under 6.00. For the same compound, the IC50 with GM00371 cells (Homo sapiens, 24 h) was at least 1 µM.
For `CNC(=O)c1cc2nc(-c3ccccc3F)n([C@H]3CCC[C@@H](NC(=O)c4ccc(Br)s4)C3)c2cc1OC` [Compound 213], in that order: over 7.00 and under 0.1 µM.
`CNC(=O)c1ccc2c(c1)nc(-c1ccccn1)n2[C@@H]1CCC[C@@H](NC(=O)c2ccc(Br)s2)C1` [Compound 101] had a pIC50 on BCAT1 of at most 6.00.
Take `C=CC(=O)NCc1ccc(C(=O)N[C@H]2CCC[C@@H](n3c(-c4ccccn4)nc4cc(C(=O)NC)ccc43)C2)s1` [Compound 108]: the negative-log IC50 (pIC50) against BCAT2 is under 6.00. Besides, in the assay with GM00371 cells (Homo sapiens, 24 h), the IC50 is at least 1 µM.
On to `CNC(=O)c1cc2nc(-c3sccc3C)n([C@H]3CCC[C@@H](NC(=O)c4ccc(Br)s4)C3)c2cc1F` [Compound 210], for which, on BCAT2, the negative-log IC50 (pIC50) was over 7.00. The IC50 in the assay with GM00371 cells (Homo sapiens, 24 h) is at least 1 µM.
`CNC(=O)c1ccc2c(c1)nc(-c1ccccn1)n2C1CCCC(NC(=O)c2ccc(C3CC3)s2)C1` (centres unmarked) [Compound 144] gave a pIC50 against BCAT2 of 6.00 to 6.30. In addition, the half-maximal inhibitory concentration (IC50) in the assay with GM00371 cells (Homo sapiens, 24 h) is at least 1 µM.
Regarding `CNC(=O)c1ccc2c(C3CCCC(NC(=O)c4ccc(-c5ccccc5)s4)C3)c(-c3ccccc3)[nH]c2c1` (centres unmarked) [Compound 304], the negative-log IC50 (pIC50) on BCAT2 was under 6.00. In addition, the IC50 in the assay with GM00371 cells (Homo sapiens, 24 h) is at least 1 µM.
At BCAT2, `CNC(=O)c1ccc2c(c1)nc(-c1ccccn1)n2[C@@H]1CCC[C@H](NC(=O)c2coc(Br)n2)C1` [Compound 120] showed a negative logarithm of the IC50 (pIC50) of under 6.00. In addition, in the assay with GM00371 cells (Homo sapiens, 24 h), the IC50 was at least 1 µM.
